Laboratory results published in US10772855B2, “N-bromotaurine solutions and emulsions against abnormal cells” (NASCO AD BIOTECHNOLOGY LABORATORY, priority 2016, dated 2020).
Entries after “also recorded” stand apart in the source; their conditions may differ.

Legend:
[1] = system: cancer cell lines A549, PC3, MDA-MB 231, HeLa, HepG2; assay: Anti-proliferative effect of stored versus fresh NBrT aqueous solutions; type: cell-based; details: aqueous solution in double distilled water or PBS left for 15, 30 or 45 days at room temperature or 4° C.; all cancer cell lines tested
Experimental: During studies on NBrT anti-proliferative effect against cancer cells, aqueous solutions of NBrT in double distilled water or phosphate buffered saline where left for 15, 30 and 45 days in room temperature or at 4° C. The anti-proliferative effect of NBrT solutions was decreased by 30-40% each time a respective solution was tested that was left for 15, 30 or 45 days since time of production in comparison with the results of the anti-proliferative effect obtained from the same but fresh solution of NBrT, tested at the same day of production. The same results were noticed in all cancer cell lines tested (A549, PC3, MDA-MB 231, HeLa, and HepG2). The loss of anti-proliferative effect of the aqueous solutions of NBrT (15, 30, 45 days) was tightly connected with the loss of corresponding absorbance at 286 nm having as a reference that a solution of 10 mM NBrT has a peak at 430M^−1 cm^−1 at day of production.

[2] = system: fibroblast-like synoviocytes; details: fibroblast-like synoviocytes that participate in rheumatoid arthritis; cited from earlier work
[3] = system: (Normal fibroblast - control); assay: Proliferation assay (cellular viability, crystal violet, OD 595 nm), normal fibroblast control; type: cell-based; details: human
Source text: (§1) Following, a more detailed description of the enhancement of the anti-proliferative effect obtained with the methodology of this invention, having the aqueous solutions of NBrT/taurine, is given. […]
(§2) The calculation of the increase of anti-proliferative activity in cancer cells with the methodology of this invention was made in comparison to the rate […] The effect of NBrT/taurine solutions with latter addition of NaOBr, namely the solutions of this present invention were compared with effect obtained by NBrT solutions without a surplus of Taurine and without latter addition of NaOBr using the same cell lines in the same experiment. […] The anti-proliferative effect on all cell cultures was measured as a means of cellular viability by Optical Density at 595 nm using a Tecan reader using a crystal violet reagent. All experiments were performed in triplicate and mean values were used.

[4] = system: HLF-1 (Normal fibroblast - control); assay: as above; type: cell-based; details: NBrT concentration range of 12.5-40 μM; surplus of taurine, later addition of NaOBr at 24, 48 and 72 hours
Source text: as §1, §2

[5] = system: hyper-proliferating cell lines A549, PC3, HeLa, MDA-MB 231, HepG2; assay: Proliferation assays, statements for all cancer cell lines together; type: cell-based; details: for enhancement of anti-proliferative effect against cancer cells as single parameter in NBrT solutions: surplus of taurine or later addition of NaOBr alone, NBrT 62.5-250 μM
Experimental: (§3) The same accounts by later addition of Taurine to a 200 mM concentration in a 40 mM NBrT solution to cause enhancement of anti-proliferative effect against cancer cells. The enhancement of anti-proliferative effect against cancer cells is achieved by the use of the surplus of taurine present in the solution that is thereafter reacting with a later addition of 40 μM NaOBr solution at 24, 48 and 72 hours of in vitro incubation of cancer cells. That is, with a 1% addition of 40 μM NaOBr solution in total volume of cell cultures at 24, 48 and 72 hours, i.e. 0.4 μM NaOBr, favorable circumstances for fresh NBrT synthesis are made in order to contribute to reaction against abnormally hyper-proliferative cells. […] Normally proliferating cell lines show an evident decrease in their proliferative ability when grown at concentrations of NBrT above 250 μM. It has to be noted that all cells tested are not affected in their proliferation rate when growing in the same medium containing 0.4-40 μM NaOBr. In general, in order to achieve acceleration of anti-proliferative effect on hyper-proliferating cells without causing damage on proliferation of normal cells the concentration of NBrT in solution is 1:5 the concentration of estimated Taurine and the addition of NaOBr solution at latter stages of treatment is 1:100 the concentration of NBrT and 1:500 the concentration of Taurine.
Following, a more detailed description of the enhancement of the anti-proliferative effect obtained with the methodology of this invention, having the aqueous solutions of NBrT/taurine, is given. Stock solution of 4 mM NBrT/20 mM taurine was diluted in final concentrations of 62.5, 125, 250 μM NBrT and 312.5, 625, 1250 μM taurine, respectively, in culture medium DMEM/10% FBS.
During cell cultivation NaOBr solutions of […] were added in 1:100 dilution to the corresponded 62.5, 125, and 250 μM NBrT and 312.5, 625, 1250 μM taurine every 24/48/72 hours. The calculation of the increase of anti-proliferative activity in cancer cells with the methodology of this invention was made in comparison to the rate of anti-proliferative effect that solutions of NBrT exert in final concentrations of 62.5, 125 and 250 μM in the same cultivation medium. The effect of NBrT/taurine solutions with latter addition of NaOBr, namely the solutions of this present invention were compared with effect obtained by NBrT solutions without a surplus of Taurine and without latter addition of NaOBr using the same cell lines in the same experiment. […] The anti-proliferative effect on all cell cultures was measured as a means of cellular viability by Optical Density at 595 nm using a Tecan reader using a crystal violet reagent. All experiments were performed in triplicate and mean values were used.

[6] = system: Prostaglandin E2 production; details: via Heme Oxygenase; cited from earlier work
[7] = system: skin of patients with acne vulgaris; details: NBrT up to 5 mM applied onto the skin of patients; cited from earlier work
purulent leg ulcers = details: cited from earlier work
all cells tested = assay: Proliferation rate of cells in medium containing NaOBr alone; type: cell-based
Experimental: as §3, with “Taurine. […]” for “Taurine.”

## O=S(=O)(O)CCNBr [NBrT, N-bromotaurine]
[1]
  decrease of anti-proliferative effect in comparison with the same but fresh solution: 30-40%
[2]
  IL6 and inflammatory mediators (PEG2): inhibit
[3]
  NBrT concentration at which normally proliferating cell lines show an evident decrease in their proliferative ability: above 250 μM
[4]
  effect on normally proliferating fibroblast cell line HFL-1: literally no effect
[5]; surplus of taurine and later addition of NaOBr at 24, 48 and 72 hours
  anti-proliferative effect on all hyper-proliferating cell lines tested: accelerating anti-proliferative effect
[6]
  Prostaglandin E2 production (eicosanoid PGE2): inhibition of Prostaglandin E2 production
[7]
  side effects on skin: literally no side effect

## O=S(=O)(O)CCNCl [NCT, N-Chlorotaurine]
Purulent leg ulcers; applied locally onto patient's wounds
  tolerability and toxicity: increased tolerability, low toxicity
Purulent leg ulcers; phase II clinical study
  efficacy against purulent leg ulcers: significant results against purulent leg ulcers

## [Na+].[O-]Br [NaOBr]
[5]
  enhancement of anti-proliferative effect against cancer cells as single parameter in NBrT solutions: do not exert any enhancement; also recorded: do not confer enhancement
All cells tested; medium containing 0.4-4 μM NaOBr
  proliferation rate of all cells tested: not affected
All cells tested; medium containing 0.4-40 μM NaOBr
  proliferation rate of all cells tested: not affected

## NCCS(=O)(=O)O [Taurine]
[5]
  enhancement of anti-proliferative effect against cancer cells as single parameter in NBrT solutions: do not exert any enhancement
[5]; listed as taurine
  enhancement of anti-proliferative effect against cancer cells as single parameter in NBrT solutions: do not confer enhancement
